Measured values from article PMC10564737, “Structure-based design of a phosphotyrosine-masked covalent ligand targeting the E3 ligase SOCS2” (Nature Communications, 2023).
“And” between values parts separate entries of the source, which are not always exact repeats. Identical values can stand only once.

Assays:
[1] = molecular target: T1, HiBiT-SOCS2 fusion in HeLa cells (Homo sapiens, UniProt O14508); test: Split-NanoLuc CETSA, live-cell mode; format: cell-based; parameters: Produrg CETSA screening, raw signal: reference not given here; conditions: for Produrg CETSA screening, raw signal: 50uM 20hrs; for ΔT / ΔT, individual replicates n1-n3: Prodrug screen CETSA; for ΔT: live HeLa cells, 50 μM, 20 h, Mean n = 3; for ΔT, individual replicates n1-n3: single replicates
T1 construct: encoding SOCS2 (32–198) in pBiT3.1-N expression vector; expressed in transfected cells; host or cells: HeLa
Description: One of the challenges with small-molecule binders displaying on-target activity with recombinant proteins, is to translate their utility to a cellular context. […] One of the advantages of CETSA is that target engagement can be monitored without the need for the development of a cell-permeable tracer molecule.
We utilized CETSA in a live-cell mode to evaluate the efficacy and rank the different prodrugs. We treated live HeLa cells with 50 μM compound (prodrugs) for 20 h and monitored Tagg shift as a proxy for the combo of prodrug permeability and unmasking (Fig. 4d). […] The observation could be because the POM group unmasking requires only esterase unlike the reliance of compounds 21–23 on esterase and phosphoramidase for unmasking an aryloxy phosphoramidate group.
N-terminal HiBiT-SOCS2 fusion was generated by encoding SOCS2 (32–198) in pBiT3.1-N expression vector (Promega). The transfection and target engagement assay were performed by modifying a NanoLuc target engagement protocol (Promega) with some small modifications. Briefly, HiBiT-SOCS2 fusion construct was transfected into HeLa cells using FuGENE HD (Promega) according to the manufacturer’s protocol. HiBiT-SOCS2 fusion construct was diluted into Transfection Carrier DNA (Promega) at a mass ratio of 1:100 or 1:10 for permeabilised and live-cell CETSA respectively. FuGENE HD was added at a ratio of 1:3 (μg DNA: μL FuGENE HD). 1 part (vol) of FuGENE HD complexes thus formed were combined with 20 parts (vol) of HeLa cells suspended at a density of 2 × 10^5 cells/mL, followed by incubation in a humidified, 37 °C + 5% CO2 incubator. After 20 h of incubation HeLa cells were detached and resuspended at a density of 2.5 × 10^5 cells/mL in Opti-MEM media without serum or phenol red but supplemented with protease inhibitor cocktail (Roche). Compounds stocks were added to cell suspension to maintain a final DMSO concentration of 1%. For the permeabilised assay format, 96-well PCR plates (Thermo) were pre-treated with digitonin to have a final well concentration of 50 μg/ml. 50 μl Opti-MEM cell suspension was then aliquoted to each well of the 96-well plate. The plates are then covered with microporous tape sheet (Qiagen) prior to incubation in a humidified, 37 °C + 5% CO2 incubator. Post-incubation we heat the PCR plates in 16-point temperature (split across two runs) curve spanning degrees 40-72 °C temperature span (CFX96 Touch Real-Time PCR Detection System, BioRad). The thermal cycler block was allowed to rise to the designated temperatures prior to placement of the PCR plates into the heating block and heat treatment for 3 min. After incubating the plates at room temperature for over 3 min, 50 μl of the Nano-Glo HiBiT Lytic mix (Promega) was added to each well. Samples were mixed by pipetting and placing the plate on an orbital shaker (600 rpm) for 5 min. 20 μl of the samples (in triplicates) were transferred to a AlphaPlate-384 plate (Perkin Elmer). Luminescence was recorded with GloMax Discover Microplate Reader (Promega). To generate apparent Tagg curves, the data is first converted to percent stabilized by relating the observed luminescence to the luminescence of the lowest temperature (40 °C) for that given sample. Data are then fitted to obtain apparent Tagg values using the Boltzmann Sigmoid equation using Graphpad Prism 9.

SBC2 = molecular target: T2, SBC2 (Homo sapiens, UniProt O14508); test: Covalent fluorescence polarization (FP) probe displacement assay; format: binding; conditions: SBC2 titration with 10 nM probe; read-out: KD of fluorescent probe measured with FP
T2 construct: SOCS2 (amino acids 32–198); His6 (N, cleaved yes); made in house; host or cells: E. coli BL21(DE3)
Excerpt: With the specific covalent modification of Cys111 established, we decided to fully characterize MN551 as a covalent SOCS2 inhibitor. […] (Fig. 2g, h, Supplementary Fig. 9). Due to the covalent nature of the competing inhibitor, a time-dependent reduction in the fraction of protein-bound probe is observed. […] This value illustrates reasonable specificity for a covalent inhibitor, with nonetheless scope for future optimization. In addition to characterizing the kinetic covalency parameters, we have also assessed the stability of the MN551 by monitoring its reactivity (half-life >70 min) with reduced glutathione (GSH) (Supplementary Fig. 10)[35].
To monitor the SBC2-ligand binding kinetics we designed a fluorescein-labeled small-molecule probe - compound 26. The fluorescence polarization (anisotropy) of a threefold serial dilution of 50 µM SBC2 in 10 nM of the probe in 100 mM HEPES pH 7.5, 50 mM NaCl, 0.5 mM TCEP, 2% DMSO was measured to determine the KL (Supplementary Fig. 9A) (BMG Labtech PHERAstar – firmware v1.33). Protein titration and the curves were fitted using GraphPad Prism 9, using one-site fitting models to determine the probe binding constant, KL. Samples were run in triplicate in 384 well plates, using a total volume per well of 16 μL. The bound fraction of the probe is measure using the equation:1 Fb=Af−A/Af−Ab Where,
A time-dependent reduction in probe anisotropy were measured for a 2-fold serial dilution of […] compound MN551 in 10 nM probe +300 μM SBC2. To determine the initial reversible binding affinity, the initial bound fraction of the probe at time = 0, Fbo (the y-intercept in Fb v/s Time plot, Supplementary Fig. 9B) was plotted against MN551 concentration, and the obtained IC50 is then converted to Ki (Supplementary Fig. 9C)[17]. The slope from Fb versus time graph when divided by Fbo gives rate of covalency, kobs. A plot of kobs v/s MN551 concentration using Michaelis–Menten model of GraphPad Prism 9, provides the parameters kinact (maximum potential rate of inactivation) and KI (concentration of MN551 at which kobs = kinact/2) (Supplementary Fig. 9D, E).
The observed first-order rate constant, kobs is related to KI and kinact by the equation:2 kobs=kinactI/KI+I
At [I]«[KI] the above equation is converted to3 […]
The slope from the plot of kobs against concentration of MN551 gives us the covalent efficiency parameter kinact/KI (Supp Fig. 9F)[30],[33].

T1 sequence (O14508 32-198): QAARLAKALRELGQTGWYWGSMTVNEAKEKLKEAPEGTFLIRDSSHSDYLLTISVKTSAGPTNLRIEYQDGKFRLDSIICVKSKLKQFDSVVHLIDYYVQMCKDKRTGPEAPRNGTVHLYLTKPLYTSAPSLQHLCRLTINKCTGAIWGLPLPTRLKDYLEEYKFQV
T1 sequence (Q15370 whole entry, further chain, the tested form may be a part): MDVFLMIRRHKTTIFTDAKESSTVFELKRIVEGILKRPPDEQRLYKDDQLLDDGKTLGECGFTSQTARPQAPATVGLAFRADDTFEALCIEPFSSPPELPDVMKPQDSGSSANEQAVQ
T1 sequence (Q15369 whole entry, further chain, the tested form may be a part): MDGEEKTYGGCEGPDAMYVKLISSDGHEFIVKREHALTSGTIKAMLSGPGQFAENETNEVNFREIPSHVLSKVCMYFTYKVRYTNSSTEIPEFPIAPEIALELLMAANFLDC
T2 sequence (O14508 32-198): as the sequence (O14508 32-198) above
T2 sequence (Q15370 1-104 partner limits assumed): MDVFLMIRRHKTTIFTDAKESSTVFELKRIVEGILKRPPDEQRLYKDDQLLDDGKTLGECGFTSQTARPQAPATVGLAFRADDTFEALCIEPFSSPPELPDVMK
T2 sequence (Q15369 17-112 partner limits assumed): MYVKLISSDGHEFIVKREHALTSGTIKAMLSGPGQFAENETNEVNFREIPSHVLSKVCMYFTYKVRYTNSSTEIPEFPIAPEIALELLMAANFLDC

In the case of `COC(=O)[C@H](C)NP(=O)(Oc1ccc(C[C@H](NC(=O)Cc2ccc(F)cc2)C(=O)NCc2cccc(NC(=O)CCl)c2)cc1)Oc1cccc2ccccc12` (stereo partly drawn) [Compound 21], the “Produrg CETSA screening, raw signal” value ([1]; n=1, temperature point 4 of 16, temperature not given) is reported as 91803 and 91466 and 172287, the “Produrg CETSA screening, raw signal” value ([1]; n=1, temperature point 5 of 16, temperature not given) is reported as 75745 and 107243 and 102225 and the “Produrg CETSA screening, raw signal” value ([1]; n=1, temperature point 6 of 16, temperature not given) is reported as 90752 and 132144 and 123125. For the same compound, the “Produrg CETSA screening, raw signal” value ([1]; n=1, temperature point 7 of 16, temperature not given) was 129001 and 137550 and 230259, the “Produrg CETSA screening, raw signal” value ([1]; n=1, temperature point 8 of 16, temperature not given) was 138976 and 169925 and 177765 and the “Produrg CETSA screening, raw signal” value ([1]; n=1, temperature point 9 of 16, temperature not given) was 198178 and 192764 and 223087. The “Produrg CETSA screening, raw signal” value ([1]; n=1, temperature point 10 of 16, temperature not given) was 187698 and 251675 and 298741, the “Produrg CETSA screening, raw signal” value ([1]; n=1, temperature point 11 of 16, temperature not given) was 267213 and 290800 and 310548 and the “Produrg CETSA screening, raw signal” value ([1]; n=1, temperature point 12 of 16, temperature not given) was 360938 and 373247 and 422856. For the same compound, the “Produrg CETSA screening, raw signal” value ([1]; n=1, temperature point 13 of 16, temperature not given) was 434129 and 461596 and 480477, the “Produrg CETSA screening, raw signal” value ([1]; n=1, temperature point 14 of 16, temperature not given) was 437890 and 471533 and 565224 and the “Produrg CETSA screening, raw signal” value ([1]; n=1, temperature point 15 of 16, temperature not given) was 465739 and 467737 and 561619. The “Produrg CETSA screening, raw signal” value ([1]; n=1, temperature point 16 of 16, temperature not given) was 441792 and 461249 and 531619, the “Produrg CETSA screening, raw signal” value ([1]; n=2, temperature point 1 of 16, temperature not given) was 100426 and 115227 and 145975 and the “Produrg CETSA screening, raw signal” value ([1]; n=2, temperature point 2 of 16, temperature not given) was 100401 and 85507 and 140649. For the same compound, the “Produrg CETSA screening, raw signal” value ([1]; n=2, temperature point 3 of 16, temperature not given) was 123706 and 103110 and 202648, the “Produrg CETSA screening, raw signal” value ([1]; n=2, temperature point 4 of 16, temperature not given) was 103160 and 69960 and 120366 and the “Produrg CETSA screening, raw signal” value ([1]; n=2, temperature point 5 of 16, temperature not given) was 75996 and 86411 and 132074. For the same compound, the “Produrg CETSA screening, raw signal” value ([1]; n=2, temperature point 6 of 16, temperature not given) was 123683 and 120963 and 144901, the “Produrg CETSA screening, raw signal” value ([1]; n=2, temperature point 7 of 16, temperature not given) was 143611 and 177701 and 227556 and the “Produrg CETSA screening, raw signal” value ([1]; n=2, temperature point 8 of 16, temperature not given) was 172997 and 193471 and 214613. The “Produrg CETSA screening, raw signal” value ([1]; n=2, temperature point 9 of 16, temperature not given) was 198669 and 236779 and 246686, the “Produrg CETSA screening, raw signal” value ([1]; n=2, temperature point 10 of 16, temperature not given) was 209139 and 261273 and 295556 and the “Produrg CETSA screening, raw signal” value ([1]; n=2, temperature point 11 of 16, temperature not given) was 246514 and 287579 and 323688. For the same compound, the “Produrg CETSA screening, raw signal” value ([1]; n=2, temperature point 12 of 16, temperature not given) was 393463 and 428191 and 449673, the “Produrg CETSA screening, raw signal” value ([1]; n=2, temperature point 13 of 16, temperature not given) was 441856 and 476194 and 509704 and the “Produrg CETSA screening, raw signal” value ([1]; n=2, temperature point 14 of 16, temperature not given) was 497788 and 532165 and 547547. The “Produrg CETSA screening, raw signal” value ([1]; n=2, temperature point 15 of 16, temperature not given) was 523691 and 513819 and 551344, the “Produrg CETSA screening, raw signal” value ([1]; n=2, temperature point 16 of 16, temperature not given) was 478273 and 472552 and 530261 and the “Produrg CETSA screening, raw signal” value ([1]; n=3, Temp, 0C 62.3) was 20167. For the same compound, the “Produrg CETSA screening, raw signal” value ([1]; n=3, Temp, 0C 66.1) was 12666 and 19260 and 24872, the “Produrg CETSA screening, raw signal” value ([1]; n=3, Temp, 0C 69.3) was 18005 and 19840 and 24313 and the “Produrg CETSA screening, raw signal” value ([1]; n=3, Temp, 0C 71.1) was 19926 and 19187 and 22421. For the same compound, the “Produrg CETSA screening, raw signal” value ([1]; n=3, Temp, 0C 72) was 14765 and 18884 and 20941, the ΔT [1] was 0.60 oC and the “ΔT, individual replicates n1-n3” value [1] was 1.03 oC and -0.02 oC and 0.80 oC.
`CC(C)OC(=O)[C@H](C)NP(=O)(Oc1ccc(C[C@H](NC(=O)Cc2ccc(F)cc2)C(=O)NCc2cccc(NC(=O)CCl)c2)cc1)Oc1cccc2ccccc12` (stereo partly drawn) [Compound 22] was tested, and the ΔT [1] was 2.37 oC and the “ΔT, individual replicates n1-n3” value [1] was 2.11 oC and 3.40 oC and 1.59 oC.
Work on `Cc1cc(CNC(=O)[C@H](Cc2ccc(OP(=O)(O)O)cc2)NC(=O)Cc2ccc(F)cc2OCCNC(=S)Nc2ccc3c(c2)C(=O)OC32c3ccc(O)cc3Oc3cc(O)ccc32)ccc1Cl` [Compound 26] yielded a Kd (SBC2) of 77.6 nM.
